The values below come from patent US9517244B2, “Therapeutic combinations for use in neoplasia” (University of Florida Research Foundation, Inc., priority 2011, dated 2016).

One series has as its target APE1 (Homo sapiens, UniProt P27695). Nature of the series: fluorescence anisotropy, APE1 binding to AP-site DNA. From the text:
FIGS. 7A and 7B show the effect of NSC-30049 on the APE1 affinity for AP-lesion containing DNA. […] FIG. 7B is a table showing the apparent Kd values of the data. Values are the mean±SD of triplicate estimations.
The small molecule inhibitor (SMI), NSC-30049, was identified as an inhibitor of APE1 endonuclease activity by molecular docking.

The next series is described as follows: solubility in water. Format: physicochemical.
Series [1] concerns HCT-116+ch3 (MMR proficient) xenograft. Briefly: xenograft model of colon cancer, tumor volume. Format: in vivo. To be noted: NSC-30049 2.5 mg/kg i.p. + temozolomide 20 mg/kg i.p., day 38. On the procedure:
(§1) FIG. 10A is a schematic representation of the experimental protocol. […] Data are the mean±SD of four to six animals in each group.
(§2) Xenograft models of colon cancer were used to test the effect of NSC-30049 as a chemopreventive agent when administered in combination with temozolomide. At day 0, the xenograft host was administered with cells from a colon cancer cell line (HCT-116, MMR deficient; HCT-116+ch3, MMR proficient). Thereafter, temozolomide (20 mg/kg body weight; intraperitoneal) and/or NSC-30049 (2.5 mg/kg body weight; intraperitoneal) were administered to the animals. Tumor growth was evaluated at day 38.

Series [2] concerns HCT-116 (MMR deficient) xenograft. Nature of the series: xenograft model of colon cancer, tumor volume. To be noted: NSC-30049 2.5 mg/kg i.p. + temozolomide 20 mg/kg i.p., day 38. The format is in vivo. On the procedure:
as §1, §2

A further series concerns the target Pol-β (Homo sapiens, UniProt P06746). Nature of the series: Pol-β-directed strand-displacement synthesis, reconstituted in vitro assay. Format: biochemical. To be noted: 0.5, 1, 2.5 and 5 μM. The procedure:
Lanes 4-7 contained increasing concentrations of NSC-30049 (0.5, 1, 2.5, and 5 μM, respectively). The arrows indicate the positions of the 63-mer substrate and the products. […] Data are representative of three different experiments.

The test system of series [3] is CD133, Nanog, Oct4, Sox2 expression in colon cancer stem cells. Briefly: qRT-PCR of self-renewal marker genes in colon cancer stem cells. Format: cell-based, human. The conditions noted are these: 1.25 μM NSC-30049 + 1.25 μM OPT, 72 h, compared to either alone. On the procedure:
(§3) Cells were treated with 1.25 μM of NSC-30049 and 1.25 μM of OPT either alone or in combination for 72 h. Data are mean±SD of triplicate experiments. FIG. 9B depicts the inhibition in expression of self-renewal marker genes of colon cancer stem cells, qRT-PCR data of CD133+, Oct4, Sox2 and Nanog gene expression levels of parental cancer cells and colon cancer stem cells was obtained. Cells were treated with 1.25 μM of NSC-30049 and 1.25 μM of OPT either alone or in combination for 72 h. Fold change in gene expression values is shown as mean±SD of three experiments and are normalized to GAPDH gene expression.
(§4) Without being bound to a particular theory, the effect of administration of NSC-30049 in combination with oxaliplatin (OPT) on the expression of self-renewal marker genes of colon cancer stem cells was analyzed. Self-renewal marker genes are highly expressed in colon cancer stem cells compared to human parental cancer cells. qRT-PCR data of CD133+, Oct4, Sox2 and Nanog gene expression levels of parental cancer cells and colon cancer stem cells was obtained (FIG. 9B). Cells were treated with 1.25 μM of NSC-30049 and 1.25 μM of OPT either alone or in combination for 72 h. The fold change in gene expression values is shown as mean±SD of three experiments and were normalized to GAPDH gene expression. […]
For orientation: Real-time PCR tracks product formation cycle by cycle.

Another series relates to Mia-PaCa2. Nature of the series: MTT assay, pancreatic cancer cell line. The format is cell-based, human. The conditions noted are these: Homo sapiens, MIA PaCa-2; Mia-PaCa2 (dFdC-resistant); single agent; 72 h; read-out: IC50.
In series [4] the test system is CD133, Nanog, Oct4, Sox2 expression in GBM-L0 stem cells. Briefly: qRT-PCR of self-renewal genes in GBM-L0 stem cells. Format: cell-based. To be noted: 2.5 μM NSC-30049 + 10 or 100 μM TMZ, 36 h, compared to either alone. On the procedure: Cells were pretreated with 2.5 μM of NSC30049 or 10 or 100 μM TMZ alone or in combination with NSC-30049 for 36 h. Then, total RNA was isolated and processed for gRT-PCR. Data presented are the mean±SE of three different measurements. […] Treatment with NSC-30049 or TMZ reduced the expression of aldehyde dehydrogenase gene Aldh1a7 in GBM-LO stem cell line in vitro, but not treatment with NSC-30049 and TMZ. Cells were pretreated with 2.5 μM of NSC30049 or 10 or 100 μM of TMZ alone or in combination with NSC-30049 for 36 h. Then, total RNA was isolated and processed for qRT-PCR. Data presented are the mean±SE of three different measurements.
Without being bound to a particular theory, the effect of administration of NSC-30049 in combination with temozolomide (TMZ) on the expression of self-renewal marker genes of […] was analyzed. Self-renewal marker genes are highly expressed in colon cancer stem cells compared to human parental cancer cells. qRT-PCR data of CD133+, Oct4, Sox2 and Nanog gene expression levels of GBM-L0 stem cells was obtained (FIG. 14A). Cells were pretreated with 2.5 μM of NSC30049 or 10 or 100 μM of TMZ alone or in combination with NSC-30049 for 36 h. Then, total RNA was isolated and processed for qRT-PCR. Data presented are the mean±SE of three different measurements. […]

In series [5] the test system is CD133, Nanog, Oct4, Sox2 expression in human parental cancer cells. Nature of the series: qRT-PCR of self-renewal marker genes in parental cancer cells. The format is cell-based. To be noted: 1.25 μM NSC-30049 + 1.25 μM OPT, 72 h, compared to either alone. On the procedure: as §3, §4
The next series concerns HPAC. Nature of the series: MTT assay, pancreatic cancer cell line. To be noted: Homo sapiens; HPAC (dFdC-sensitive); single agent; 72 h; read-out: IC50. Format: cell-based, human.
In the next series the test system is MiaPaCa2-Lu tumors. Nature of the series: orthotopic MiaPaCa2-Lu tumors in athymic mice, tumor luciferase expression. The format is in vivo. The conditions noted are these: combination treatment of NSC-30049 and CDDP. From the text: FIG. 8A depicts in situ imaging of orthotopic MiaPaCa2-Lu tumors growing in female athymic (nu/nu) mice.
Another series has as its system PANC1. Briefly: MTT assay, pancreatic cancer cell line. Format: cell-based, human. The conditions noted are these: Homo sapiens, PANC-1; PANC1 (dFdC-resistant); single agent; 72 h; read-out: IC50. Background: Tetrazolium dyes change colour on reduction, which living cells bring about.
A further series deals with AsPC1. Nature of the series: MTT assay, pancreatic cancer cell line. The conditions noted are these: Homo sapiens; AsPC1 (dFdC-resistant); single agent; 72 h; read-out: IC50. The format is cell-based, human.

Sequence of APE1 (P27695 whole entry): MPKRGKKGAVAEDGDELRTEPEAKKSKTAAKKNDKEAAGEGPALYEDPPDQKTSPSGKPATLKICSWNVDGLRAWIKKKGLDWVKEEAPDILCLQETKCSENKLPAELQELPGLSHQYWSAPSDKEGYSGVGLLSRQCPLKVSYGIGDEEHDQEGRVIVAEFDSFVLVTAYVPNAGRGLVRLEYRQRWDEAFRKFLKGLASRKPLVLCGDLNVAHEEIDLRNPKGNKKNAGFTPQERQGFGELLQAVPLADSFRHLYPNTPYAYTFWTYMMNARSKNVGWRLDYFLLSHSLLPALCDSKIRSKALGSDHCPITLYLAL

On to `ClCC=CC[N+]12CN3CN(CN(C3)C1)C2` [NSC-30049, 1-(4-Chloro-2-butenyl)-1λ˜5˜,3,5,7-tetraazatricyclo[3.3.1.1˜3,7˜]decane], for which the “binding of APE1 with AP-site DNA” value at APE1 is “blocked the binding of APE1 with AP-site DNA in a dose-dependent manner”. For the same compound, the solubility in water result in “solubility in water” was “readily soluble in water”. Besides, the “inhibition of tumor growth (tumor volume)” value in series [1] and in series [2] was “synergistic effect on the inhibition of tumor growth” throughout. Moreover, the “effect on Pol-β-directed strand-displacement synthesis” value at Pol-β is “did not affect Pol-β-directed strand-displacement synthesis”. For the same compound, the “expression of CD133, Nanog, Oct4, and Sox2” value is “significantly inhibited the expression of CD133, Nanog, Oct4, and Sox2” in series [3]; “significantly inhibited the expression of CD133, Nanog, Oct4, and Sox2” in [4]; “inhibited the expression of CD133, Nanog, Oct4, and Sox2 in human parental cancer cells” in series [5]. In addition, the IC50 is 5.12 ± 0.22 µM in the series with Mia-PaCa2, 4.44 ± 0.28 µM with HPAC, 5.12 ± 0.22 µM in the series on PANC1 and 1.88 ± 0.11 µM in the series on AsPC1. For the same compound, in the series with MiaPaCa2-Lu tumors, the “inhibition of tumor growth (tumor luciferase expression)” value is given as “synergistic effect on the inhibition of MiaPaCa2-Lu tumor growth”.

As usually defined, the IC50 is the point on the concentration scale where inhibition reaches its midpoint.
